# Columns and labels:
# Format in all cases: biochemical
# NRAS Q61K = NRAS Q61K (Homo sapiens (Human), UniProt P01111+P62937, Q61K); assay: Ras-Raf (BRAF RBD) disruption / FRET / MOA assay, NRAS Q61K; settings: NRAS Q61K; Ras-Raf disruption/FRET/MOA assay; read-out: IC50* NRAS Q61K FRET data
# Procedure, shortened: (§1)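 TR-FRET disruption of nucleotide-loaded Ras binding to BRAF RBD via compound-driven ternary complex with cyclophilin A. Compound as 10-point 3-fold series from 30 μM final, 3 h at 25° C, then anti-His Eu-W1024 (10 nM) and anti-GST allophycocyanin (50 nM) for 1.5 h. IC50 from decreased FRET ratio versus DMSO.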
# NRAS Q61R = NRAS Q61R (Homo sapiens (Human), UniProt P01111+P62937, Q61R); assay: Ras-Raf (BRAF RBD) disruption / FRET / MOA assay, NRAS Q61R; settings: NRAS Q61R; Ras-Raf disruption/FRET/MOA assay; read-out: IC50* NRAS Q61R FRET data
# Procedure, shortened: as §1
# NRAS G12C = NRAS G12C (Homo sapiens (Human), UniProt P01111+P62937, G12C); assay: Ras-Raf (BRAF RBD) disruption / FRET / MOA assay, NRAS G12C; settings: read-out: IC50* NRAS G12C FRET data
# Procedure, shortened: (§2)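 Ras:RAF disruption was scored as a fall in TR-FRET ratio relative to DMSO. Compound ranged in 3-fold steps over 10 points from 30 μM final; incubation ran 3 h at 25° C, detection antibodies a further 1.5 h. Reported as IC50.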
# K-Ras G12C = K-Ras G12C (Homo sapiens (Human), UniProt P01116+P62937, G12C); assay: Ras-Raf (BRAF RBD) disruption / FRET / MOA assay, KRAS G12C; settings: KRAS G12C; Ras-Raf disruption/FRET/MOA assay; read-out: IC50* KRAS G12C FRET data
# Procedure, shortened: as §2
# KRAS WT = KRAS WT (Homo sapiens (Human), UniProt P01116+P62937); assay: Ras-Raf (BRAF RBD) disruption / FRET / MOA assay, KRAS WT; settings: read-out: IC50* KRAS WT FRET data
# Procedure, shortened: as §2
# KRAS G13D = KRAS G13D (Homo sapiens (Human), UniProt P01116+P62937, G13D); assay: Ras-Raf (BRAF RBD) disruption / FRET / MOA assay, KRAS G13D; settings: read-out: IC50* KRAS G13D FRET data
# Procedure, shortened: as §2
# KRAS G12S = KRAS G12S (Homo sapiens (Human), UniProt P01116+P62937, G12S); assay: Ras-Raf (BRAF RBD) disruption / FRET / MOA assay, KRAS G12S; settings: Ras-Raf disruption/FRET/MOA assay; class symbols; read-out: KRAS G12S FRET data IC50
# Procedure, shortened: as §2
# K-Ras G13C = K-Ras G13C (Homo sapiens (Human), UniProt P01116+P62937, G13C); assay: Ras-Raf (BRAF RBD) disruption / FRET / MOA assay, KRAS G13C; settings: KRAS G13C; Ras-Raf disruption/FRET/MOA assay; read-out: IC50* KRAS G13C FRET data
# Procedure, shortened: as §2
# KRAS Q61H = KRAS Q61H (Homo sapiens (Human), UniProt P01116+P62937, Q61H); assay: Ras-Raf (BRAF RBD) disruption / FRET / MOA assay, KRAS Q61H; settings: Ras-Raf disruption/FRET/MOA assay; class symbols; read-out: KRAS Q61H FRET data IC50
# Procedure, shortened: as §1
# KRAS G12D = KRAS G12D (Homo sapiens (Human), UniProt P01116+P62937, G12D); assay: Ras-Raf (BRAF RBD) disruption / FRET / MOA assay, KRAS G12D; settings: Ras-Raf disruption/FRET/MOA assay; class symbols; read-out: KRAS G12D FRET data IC50
# Procedure, shortened: as §2
# KRAS Q61H, sequence (P01116-2 other isoform, or with tags, fused parts or gaps Q61H): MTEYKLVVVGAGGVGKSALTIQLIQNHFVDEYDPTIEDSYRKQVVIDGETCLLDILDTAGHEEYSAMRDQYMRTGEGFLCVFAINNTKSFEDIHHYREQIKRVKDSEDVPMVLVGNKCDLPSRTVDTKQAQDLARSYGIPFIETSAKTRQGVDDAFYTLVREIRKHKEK
# KRAS Q61H, sequence (P62937 whole entry): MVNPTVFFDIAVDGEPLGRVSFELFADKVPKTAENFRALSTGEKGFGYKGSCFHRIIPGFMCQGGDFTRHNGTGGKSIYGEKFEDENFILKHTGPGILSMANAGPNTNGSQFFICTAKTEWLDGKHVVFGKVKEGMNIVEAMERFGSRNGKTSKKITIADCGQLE
# KRAS WT, sequence (P01116-2 other isoform, or with tags, fused parts or gaps): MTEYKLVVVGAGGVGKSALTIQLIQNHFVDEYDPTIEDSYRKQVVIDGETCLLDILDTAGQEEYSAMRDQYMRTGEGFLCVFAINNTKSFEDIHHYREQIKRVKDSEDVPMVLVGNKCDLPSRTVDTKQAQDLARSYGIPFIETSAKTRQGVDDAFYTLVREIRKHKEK
# KRAS WT, sequence (P62937 whole entry): as the sequence (P62937 whole entry) above
# KRAS G12D, sequence (P01116-2 other isoform, or with tags, fused parts or gaps G12D): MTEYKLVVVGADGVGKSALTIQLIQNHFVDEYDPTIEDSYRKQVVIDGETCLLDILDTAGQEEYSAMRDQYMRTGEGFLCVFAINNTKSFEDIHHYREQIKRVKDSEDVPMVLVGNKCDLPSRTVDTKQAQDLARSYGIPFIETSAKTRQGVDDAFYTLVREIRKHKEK
# KRAS G12D, sequence (P62937 whole entry): as the sequence (P62937 whole entry) above
# K-Ras G13C, sequence (P01116-2 other isoform, or with tags, fused parts or gaps G13C): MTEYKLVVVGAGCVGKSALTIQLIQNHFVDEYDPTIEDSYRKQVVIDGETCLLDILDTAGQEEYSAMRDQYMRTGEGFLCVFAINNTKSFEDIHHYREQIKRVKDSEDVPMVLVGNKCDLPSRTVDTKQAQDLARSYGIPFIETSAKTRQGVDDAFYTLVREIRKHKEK
# K-Ras G13C, sequence (P62937 whole entry): as the sequence (P62937 whole entry) above
# KRAS G13D, sequence (P01116-2 other isoform, or with tags, fused parts or gaps G13D): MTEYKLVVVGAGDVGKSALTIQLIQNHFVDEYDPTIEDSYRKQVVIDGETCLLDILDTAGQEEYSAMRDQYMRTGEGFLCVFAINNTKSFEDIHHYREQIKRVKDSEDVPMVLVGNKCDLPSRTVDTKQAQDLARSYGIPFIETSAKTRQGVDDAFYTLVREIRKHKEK
# KRAS G13D, sequence (P62937 whole entry): as the sequence (P62937 whole entry) above
# NRAS Q61K, sequence (P01111 whole entry Q61K): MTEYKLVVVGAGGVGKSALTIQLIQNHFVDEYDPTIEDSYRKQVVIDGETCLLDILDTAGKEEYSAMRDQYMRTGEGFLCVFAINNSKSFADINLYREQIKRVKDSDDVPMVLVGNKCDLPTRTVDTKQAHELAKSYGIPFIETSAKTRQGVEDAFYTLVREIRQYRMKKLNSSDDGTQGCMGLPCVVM
# NRAS Q61K, sequence (P62937 whole entry): as the sequence (P62937 whole entry) above
# K-Ras G12C, sequence (P01116-2 other isoform, or with tags, fused parts or gaps G12C): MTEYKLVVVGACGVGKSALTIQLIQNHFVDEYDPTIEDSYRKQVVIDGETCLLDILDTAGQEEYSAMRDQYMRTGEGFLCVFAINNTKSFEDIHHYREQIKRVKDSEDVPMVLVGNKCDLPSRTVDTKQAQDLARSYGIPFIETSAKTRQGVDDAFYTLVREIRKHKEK
# K-Ras G12C, sequence (P62937 whole entry): as the sequence (P62937 whole entry) above
# NRAS G12C, sequence (P01111 whole entry G12C): as the sequence (P01111 whole entry Q61K) above, with G12C, K61Q counted along it
# NRAS G12C, sequence (P62937 whole entry): as the sequence (P62937 whole entry) above
# NRAS Q61R, sequence (P01111 whole entry Q61R): as the sequence (P01111 whole entry Q61K) above, with K61R counted along it
# NRAS Q61R, sequence (P62937 whole entry): as the sequence (P62937 whole entry) above
# KRAS G12S, sequence (P01116-2 other isoform, or with tags, fused parts or gaps G12S): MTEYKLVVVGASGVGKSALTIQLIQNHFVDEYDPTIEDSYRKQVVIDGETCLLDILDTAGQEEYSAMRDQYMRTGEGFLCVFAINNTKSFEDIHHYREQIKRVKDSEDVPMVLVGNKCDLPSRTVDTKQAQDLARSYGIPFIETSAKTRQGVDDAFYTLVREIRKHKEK
# KRAS G12S, sequence (P62937 whole entry): as the sequence (P62937 whole entry) above
Structure (SMILES),IC50 (NRAS Q61K),IC50 (NRAS Q61R),IC50 (NRAS G12C),IC50 (K-Ras G12C),IC50 (KRAS WT),IC50 (KRAS G13D),IC50 (KRAS G12S),IC50 (K-Ras G13C),IC50 (KRAS Q61H),IC50 (KRAS G12D)
"C=CC(=O)N1CC[C@H](C(=O)N2CCCCC[C@H]2C(=O)N[C@H]2Cc3nc(cs3)-c3ccc4c(c3)c(c(-c3cccnc3[C@H](C)OC)n4CC)CC(C)(C)COC(=O)[C@@H]3CCCN(N3)C2=O)C1 (atropisomer, axis not shown) [Example A495]",1000 to 10000 nM,1000 to 10000 nM,100 to 1000 nM,100 to 1000 nM,1000 to 10000 nM,> 10000 nM,1000 to 10000 nM,1000 to 10000 nM,1000 to 10000 nM,> 10000 nM
"C=CC(=O)N(C)CCN1CCN(C(=O)N(C)[C@H](C(=O)N[C@H]2Cc3cccc(c3)-c3ccc4c(c3)c(c(-c3cccnc3[C@H](C)OC)n4CC)CC(C)(C)COC(=O)[C@@H]3CCCN(N3)C2=O)C(C)C)CC1 (atropisomer, axis not shown) [Example A539]",100 to 1000 nM,100 to 1000 nM,100 to 1000 nM,100 to 1000 nM,100 to 1000 nM,1000 to 10000 nM,100 to 1000 nM,10 to 100 nM,100 to 1000 nM,1000 to 10000 nM
"C=CC(=O)N1CCOC2(CCN(C(=O)N(C)[C@H](C(=O)N[C@H]3Cc4cc(C(F)F)cc(n4)-c4ccc5c(c4)c(c(-c4cccnc4[C@H](C)OC)n5CC(F)(F)F)CC(C)(C)COC(=O)[C@@H]4CCCN(N4)C3=O)C(C)C)CC2)C1 (atropisomer, axis not shown) [Example A541]",100 to 1000 nM,100 to 1000 nM,100 to 1000 nM,100 to 1000 nM,100 to 1000 nM,1000 to 10000 nM,100 to 1000 nM,10 to 100 nM,100 to 1000 nM,1000 to 10000 nM
"C=CC(=O)N1CCC[C@]12CCN(C(=O)N(C)[C@H](C(=O)N[C@H]1Cc3nc(cs3)-c3ccc4c(c3)c(c(-c3cccnc3[C@H](C)OC)n4CC)CC(C)(C)COC(=O)[C@@H]3CCCN(N3)C1=O)C(C)C)C2 (atropisomer, axis not shown) [Example A548]",100 to 1000 nM,100 to 1000 nM,100 to 1000 nM,100 to 1000 nM,100 to 1000 nM,1000 to 10000 nM,100 to 1000 nM,1000 to 10000 nM,100 to 1000 nM,1000 to 10000 nM
"C=CC(=O)N(C)CCN1CCN(C(=O)N(C)[C@H](C(=O)N[C@H]2Cc3cccc(c3)-c3ccc4c(c3)c(c(-c3cccnc3[C@H](C)OC)n4CC)CC(C)(C)COC(=O)[C@@H]3CCCN(N3)C2=O)C(C)C)C[C@H]1C (atropisomer, axis not shown) [Example A553]",1000 to 10000 nM,1000 to 10000 nM,100 to 1000 nM,100 to 1000 nM,100 to 1000 nM,1000 to 10000 nM,1000 to 10000 nM,10 to 100 nM,100 to 1000 nM,1000 to 10000 nM
"C=CC(=O)N1CCC2(CCN(C(=O)N(C)[C@H](C(=O)N[C@H]3Cc4cccc(c4)-c4ccc5c(c4)c(c(-c4cccnc4[C@H](C)OC)n5CC)CC(C)(C)COC(=O)[C@@H]4CCCN(N4)C3=O)C(C)C)CC2)C1 (atropisomer, axis not shown) [Example A554]",100 to 1000 nM,100 to 1000 nM,100 to 1000 nM,100 to 1000 nM,100 to 1000 nM,1000 to 10000 nM,100 to 1000 nM,10 to 100 nM,100 to 1000 nM,1000 to 10000 nM
"C=CC(=O)N1CC[C@]2(C1)OCN([C@H](C(=O)N[C@H]1Cc3cc(cc(C(F)F)c3)-c3ccc4c(c3)c(c(-c3cccnc3[C@H](C)OC)n4CC)CC(C)(C)COC(=O)[C@@H]3CCCN(N3)C1=O)C(C)C)C2=O (atropisomer, axis not shown) [Example A557]",1000 to 10000 nM,1000 to 10000 nM,100 to 1000 nM,100 to 1000 nM,100 to 1000 nM,1000 to 10000 nM,100 to 1000 nM,100 to 1000 nM,10 to 100 nM,1000 to 10000 nM
"CCn1c(-c2cccnc2[C@H](C)OC)c2c3cc(ccc31)-c1cccc(c1)C[C@H](NC(=O)[C@H](C(C)C)N1CC[C@]3(CCN(C(=O)C#C[C@H]4COCCN4C4COC4)C3)C1=O)C(=O)N1CCC[C@H](N1)C(=O)OCC(C)(C)C2 (atropisomer, axis not shown) [Example A568]",> 10000 nM,> 10000 nM,100 to 1000 nM,10 to 100 nM,> 10000 nM,> 10000 nM,1000 to 10000 nM,1000 to 10000 nM,1000 to 10000 nM,> 10000 nM
"CCn1c(-c2cccnc2[C@H](C)OC)c2c3cc(ccc31)-c1cccc(c1)C[C@H](NC(=O)[C@H](C(C)C)N1CC[C@]3(CCN(C(=O)C#C[C@@H]4COCCN4C)C3)C1=O)C(=O)N1CCC[C@H](N1)C(=O)OCC(C)(C)C2 (atropisomer, axis not shown) [Example A569]",> 10000 nM,> 10000 nM,10 to 100 nM,10 to 100 nM,10 to 100 nM,> 10000 nM,1000 to 10000 nM,1000 to 10000 nM,1000 to 10000 nM,> 10000 nM
"C=CC(=O)N(C)CCN1CCN(C(=O)N(C)[C@H](C(=O)N[C@H]2Cc3cccc(c3)-c3ccc4c(c3)c(c(-c3cccnc3[C@H](C)OC)n4CC)CC(C)(C)COC(=O)[C@@H]3CCCN(N3)C2=O)C(C)C)C[C@@H]1C (atropisomer, axis not shown) [Example A570]",100 to 1000 nM,100 to 1000 nM,100 to 1000 nM,100 to 1000 nM,100 to 1000 nM,1000 to 10000 nM,100 to 1000 nM,10 to 100 nM,100 to 1000 nM,1000 to 10000 nM
"C=CC(=O)N1CCO[C@H]2CN(C(=O)N(C)[C@H](C(=O)N[C@H]3Cc4nc(n(C)n4)-c4ccc5c(c4)c(c(-c4cccnc4[C@H](C)OC)n5CC(F)(F)F)CC(C)(C)COC(=O)[C@@H]4CCCN(N4)C3=O)C(C)C)C[C@H]21 (atropisomer, axis not shown) [Example A575]",100 to 1000 nM,100 to 1000 nM,10 to 100 nM,10 to 100 nM,100 to 1000 nM,1000 to 10000 nM,100 to 1000 nM,10 to 100 nM,100 to 1000 nM,1000 to 10000 nM
"C=CC(=O)N1CCO[C@]2(CCN(C(=O)N(C)[C@H](C(=O)N[C@H]3Cc4nc(cs4)-c4ccc5c(c4)c(c(-c4cccnc4[C@H](C)OC)n5CC(F)(F)F)CC(C)(C)COC(=O)[C@@H]4CCCN(N4)C3=O)C(C)C)C2)C1 (atropisomer, axis not shown) [Example A593]",100 to 1000 nM,100 to 1000 nM,100 to 1000 nM,100 to 1000 nM,1000 to 10000 nM,1000 to 10000 nM,1000 to 10000 nM,100 to 1000 nM,100 to 1000 nM,1000 to 10000 nM

# From US11566007B2, “Ras inhibitors” (Revolution Medicines, Inc., priority 2019, dated 2023)
